Experimental data reported in ChEMBL document CHEMBL1121961, “Synthesis and biological evaluation of 6-ethynyluracil, a thiol-specific alkylating pyrimidine” (J Med Chem, 1982).

Legend:
Type in all cases: functional, cell-based
Settings in all cases: Mus musculus
[1] = test system: L1210; test: In vitro inhibitory activity against leukemia L1210 cell lines
[2] = test system: Lewis lung carcinoma cell line; test: In vitro inhibitory activity against lewis lung cell lines
[3] = test system: B16; test: In vitro inhibitory activity against B16 melanoma cell lines

Compound | Concentration [1] [µM] | Concentration [2] [µM] | Concentration [3] [µM]
C#Cc1cc(O)nc(O)n1 | 7 | 20 | 10
Oc1cc(/C=C/C(Br)Br)nc(O)n1 | 1 | 8 | 1
